Results taken from patent US8530380B2 (priority 1997, dated 2013).

System: Phytophthora infestans
Assay type: in vivo
Conditions: single active ingredient, 3.1 ppm in the spray liquor; tomato plants infected next day, evaluated after 6 days

SMILES	Efficacy in % of the untreated control
O=C(Nc1ccccc1-c1ccc(F)cc1)c1cccnc1Cl [Compound I.1]	0%
COCC(=O)N(c1c(C)cccc1C)C(C)C(=O)OC (centres unmarked) [Compound IV.3, metalaxyl]	0%
